In patent US20200071326A1, “TAM KINASE INHIBITORS” (Syros Pharmaceuticals, Inc., priority 2017, published 2020) one finds Ki data, which are given here for six molecules.

One experiment concerns the target T1, FLT3 (Homo sapiens, UniProt P36888).
T1 sequence (P36888 27-993): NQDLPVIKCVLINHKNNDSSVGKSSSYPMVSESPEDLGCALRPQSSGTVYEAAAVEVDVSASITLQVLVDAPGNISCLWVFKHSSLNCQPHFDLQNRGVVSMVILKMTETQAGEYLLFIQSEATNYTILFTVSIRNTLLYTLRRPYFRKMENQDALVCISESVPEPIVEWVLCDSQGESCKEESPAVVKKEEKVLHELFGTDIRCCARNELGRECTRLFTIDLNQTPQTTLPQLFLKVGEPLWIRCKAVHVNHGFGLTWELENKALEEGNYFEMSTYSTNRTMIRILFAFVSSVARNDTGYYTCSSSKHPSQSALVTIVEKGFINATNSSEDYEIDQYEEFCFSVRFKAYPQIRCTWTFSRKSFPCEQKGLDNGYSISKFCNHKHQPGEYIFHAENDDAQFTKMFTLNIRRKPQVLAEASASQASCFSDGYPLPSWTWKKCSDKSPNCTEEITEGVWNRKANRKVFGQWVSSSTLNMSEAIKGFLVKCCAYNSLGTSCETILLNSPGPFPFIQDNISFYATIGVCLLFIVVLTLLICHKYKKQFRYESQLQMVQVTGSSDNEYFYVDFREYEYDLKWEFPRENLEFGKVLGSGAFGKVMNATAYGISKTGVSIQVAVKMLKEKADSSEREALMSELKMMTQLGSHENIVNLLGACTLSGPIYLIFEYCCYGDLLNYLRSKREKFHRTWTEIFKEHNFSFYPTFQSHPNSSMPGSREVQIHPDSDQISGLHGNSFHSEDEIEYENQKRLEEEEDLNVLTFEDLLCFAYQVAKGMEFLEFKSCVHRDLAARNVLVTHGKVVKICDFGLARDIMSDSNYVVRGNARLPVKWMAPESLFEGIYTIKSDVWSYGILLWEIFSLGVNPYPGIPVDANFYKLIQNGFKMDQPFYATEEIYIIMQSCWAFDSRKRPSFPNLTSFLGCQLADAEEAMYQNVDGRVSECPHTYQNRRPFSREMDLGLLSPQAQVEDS
The experiment in a line: IMAP fluorescence polarization kinase assay, FLT3. It is filed as biochemical. The following applies: ATP 2.74 μM, enzyme 2.5 nM, 240 minutes, read-out: FLT3 inhibitory constant (Ki). As to the method: (§1) Activities of compounds against each of TYRO3, AXL, and MERTK as well as against FLT3, were determined using an immobilized metal ion affinity-based fluorescence polarization (“IMAP”) assay. A fluorescently-labeled substrate peptide was phosphorylated in the kinase reaction, after which a binding solution containing large trivalent metal-based nanoparticles was added and the phosphorylated substrate binds to these beads. This reduces the rotational speed of the substrate which is then detected using fluorescence polarization as a read-out.
(§2) The substrates used for each enzyme are as follows: AXL: 5F1-KKKKEEIYFFFG-NH2(SEQ ID NO:1); FLT3: 5F1-KKKKEEIYFFF-NH2 (SEQ ID NO:2); MERTK: 5F1-EFPIYDFLPAKKK-NH2 (SEQ ID NO:3); and TYRO3: 5F1-EFPIYDFLPAKKK-NH2 (SEQ ID NO:4).
(§3) This assay was performed in a 384-well, polystyrene microplate in a final volume of 8 μl. Substrate (final concentration=400 nM), ATP (final concentrations=24.7μM for AXL; 2.74 μM for FLT3; 2.69 μM for MERTK; and 54.0 μM for TYRO3), compounds and enzyme (final concentrations=2.5 nM for AXL, FLT3 and TYRO3; 1.5 nM for MERTK) were pipetted in this order into the appropriate reaction buffer (AXL: 50 mM HEPES, pH 8.0, 1 mM DTT, 10 mM MgCl2, 0.01% BRU35, 0.01% Triton X-100; FLT3: 50 mM HEPES, pH 8.0, 1 mM DTT, 10 mM MgCl2, 0.01% Triton X-100, 0.01% NP40; MERTK/TYRO3: 50 mM HEPES, pH 8.0, 1 mM DTT, 10 mM MgCl2, 0.01% Triton X-100) and incubated at room temperature for varying times (AXL, FLT3 and MERTK: 240 minutes; TYRO3: 60 minutes). IMAP binding solution was then dispensed, the plate incubated for 60 minutes at room temperature and the fluorescence polarization measured. Data were analyzed using XLfit.
For orientation: Fluorescence polarisation rises when a labelled molecule tumbles more slowly, as on binding a larger partner.

The target of another experiment is T2, AXL (Homo sapiens, UniProt P30530).
T2 sequence (P30530 26-894): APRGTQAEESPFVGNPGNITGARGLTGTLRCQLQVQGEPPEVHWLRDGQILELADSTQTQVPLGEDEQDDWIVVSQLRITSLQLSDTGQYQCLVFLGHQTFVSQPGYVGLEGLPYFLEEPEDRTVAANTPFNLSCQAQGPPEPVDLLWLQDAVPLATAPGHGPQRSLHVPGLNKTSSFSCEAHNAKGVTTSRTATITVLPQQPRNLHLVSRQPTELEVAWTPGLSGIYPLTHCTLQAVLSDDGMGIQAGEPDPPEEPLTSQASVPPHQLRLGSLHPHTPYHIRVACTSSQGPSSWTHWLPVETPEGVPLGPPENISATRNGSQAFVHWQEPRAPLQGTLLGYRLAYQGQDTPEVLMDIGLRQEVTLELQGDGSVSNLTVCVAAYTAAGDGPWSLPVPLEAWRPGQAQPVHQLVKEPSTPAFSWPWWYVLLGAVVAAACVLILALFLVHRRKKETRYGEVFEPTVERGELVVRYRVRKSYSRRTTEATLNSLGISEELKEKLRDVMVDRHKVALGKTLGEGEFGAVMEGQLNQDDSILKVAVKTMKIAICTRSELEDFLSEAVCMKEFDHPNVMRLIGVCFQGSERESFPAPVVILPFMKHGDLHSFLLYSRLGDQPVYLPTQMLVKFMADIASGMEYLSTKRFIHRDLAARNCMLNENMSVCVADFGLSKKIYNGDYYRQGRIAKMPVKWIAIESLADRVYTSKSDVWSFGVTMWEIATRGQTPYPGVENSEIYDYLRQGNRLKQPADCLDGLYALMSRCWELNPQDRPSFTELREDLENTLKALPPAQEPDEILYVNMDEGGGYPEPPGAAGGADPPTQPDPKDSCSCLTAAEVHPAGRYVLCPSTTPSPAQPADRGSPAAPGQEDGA
Kind of experiment: IMAP fluorescence polarization kinase assay, AXL. It counts as biochemical. The following applies: ATP 24.7 μM, enzyme 2.5 nM, 240 minutes, read-out: AXL inhibitory constant (Ki). Here is the method: as §1, §2, §3

pKi: −log10 of the molar value.

Broadly, the pKi is the Ki on a negative log10 scale, so that one unit is a factor of ten. For `CCCC(O)c1cc2c(N[C@H]3CC[C@H](N)CC3)c(C(=O)Nc3ccc(F)cc3)cnc2[nH]1` (stereo partly drawn) [Compound 154], the pKi at FLT3 and at AXL was < 5.00 throughout.

For `COCC(C)c1cc2c(N[C@H]3CC[C@H](N)CC3)c(C(=O)Nc3ccc(F)cc3)cnc2[nH]1` (stereo partly drawn) [Compound 155], the pKi at FLT3 was 5.00 to 6.00; at AXL it was < 5.00.

For `CC[C@H](C)c1cc2c(N[C@H]3CC[C@H](N)CC3)c(C(=O)Nc3ccc(F)cc3)cnc2[nH]1` [Compound 156], the results for the pKi at FLT3 and at AXL were 6.00 to 7.00 and 5.00 to 6.00, respectively.

On to `CCC(C)c1cc2c(N[C@H]3CC[C@H](O)CC3)c(C(=O)NC3CCN(c4ncccn4)CC3)cnc2[nH]1` (stereo partly drawn) [Compound 157], for which the negative-log Ki (pKi) at FLT3 and at AXL was < 5.00 in each case.

`CCC(C)c1cc2c(N[C@H]3CC[C@H](O)CC3)c(C(=O)NC3CCN(C4=NCCCN4)CC3)cnc2[nH]1` (stereo partly drawn) [Compound 158]: the pKi at FLT3 is 6.00 to 7.00; at AXL it was 5.00 to 6.00.

Take `CCC(C)c1cc2c(N[C@H]3CC[C@H](O)CC3)c(-c3ccc(S(=O)(=O)N4CCOCC4)cn3)cnc2[nH]1` (stereo partly drawn) [Compound 159]: the pKi at FLT3 and at AXL was < 5.00 in each case.
